Data published in ChEMBL document CHEMBL1201862, “PubChem BioAssay data set” (2004).
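96-well plates; 48 h exposure; 5 concentrations. Endpoints by linear interpolation between flanking doses. Not reached: highest tested concentration assigned. The concentration for 50% growth inhibition is given as GI50.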 The source made the active and inactive calls. Cut-off read from the data, not from the text of the source: active = GI50 up to about 1.1 µM and inactive = higher.

Tests used:
Test in all cases: NCI anticancer screen, dose series, 48 h
A498 = system: A498
BT-549 = system: BT-549
EKVX = system: EKVX
KM12 = system: KM12
M14 = system: M14
MCF7 = system: MCF7
MDA-MB-435 = system: MDA-MB-435
MDA-N = system: MDA-N
Malme-3M = system: Malme-3M
NCI-H23 = system: NCI-H23
NCI/ADR-RES = system: NCI/ADR-RES
OVCAR-4 = system: OVCAR-4
PC-3 = system: PC-3
RPMI-8226 = system: RPMI-8226
RXF 393 = system: RXF 393
SF-295 = system: SF-295
SF-539 = system: SF-539
SK-MEL-2 = system: SK-MEL-2
SK-OV-3 = system: SK-OV-3
UO-31 = system: UO-31

SMILES | GI50 (A498) | GI50 (BT-549) | GI50 (EKVX) | GI50 (KM12) | GI50 (M14) | GI50 (MCF7) | GI50 (MDA-MB-435) | GI50 (MDA-N) | GI50 (Malme-3M) | GI50 (NCI-H23) | GI50 (NCI/ADR-RES) | GI50 (OVCAR-4) | GI50 (PC-3) | GI50 (RPMI-8226) | GI50 (RXF 393) | GI50 (SF-295) | GI50 (SF-539) | GI50 (SK-MEL-2) | GI50 (SK-OV-3) | GI50 (UO-31)
CCOC(=O)C(C(=O)OCC)=C1NC2(c3ccccc3Nc3ccc(C)cc32)C(C(=O)OC)S1 (stereo not given) | 10.1 µM (inactive) | 43.6 µM (inactive) | 8.36 µM (inactive) | 14.2 µM (inactive) | 27.6 µM (inactive) | 14.8 µM (inactive) | 30.5 µM (inactive) | 32.9 µM (inactive) | 22.5 µM (inactive) | 25.5 µM (inactive) | 17.5 µM (inactive) | 21.9 µM (inactive) | 6.85 µM (inactive) | 8.93 µM (inactive) | 7.18 µM (inactive) | 10.8 µM (inactive) | 42.2 µM (inactive) | 14.7 µM (inactive) | > 100 µM (inactive) | 16.5 µM (inactive)
COCn1c(=O)n(C)c(=O)c2c1nc1c(c(=O)n(C)c(=O)n1COC)[n+]2[O-] | 31.2 µM (inactive) | 10.3 µM (inactive) | 7.85 µM (inactive) | 13.3 µM (inactive) | 10.3 µM (inactive) | 20.4 µM (inactive) | 5.75 µM (inactive) | 4.32 µM (inactive) | 5.47 µM (inactive) | 3.29 µM (inactive) | 59 µM (inactive) | 4.85 µM (inactive) | 5.07 µM (inactive) | 9.1 µM (inactive) | 0.789 µM (active) | 7.55 µM (inactive) | 14.6 µM (inactive) | 12.6 µM (inactive) | 7.03 µM (inactive) | 24.9 µM (inactive)
Cc1ccc([N+](=O)[O-])cc1S(=O)(=O)Nc1ccc(C2=NOC(c3cccs3)C2)cc1 (stereo not given) | 4.56 µM (inactive) | 13.2 µM (inactive) | 19.9 µM (inactive) | 7.18 µM (inactive) | 5.98 µM (inactive) | 5.73 µM (inactive) | 2.53 µM (inactive) | 2.74 µM (inactive) | 13.9 µM (inactive) | 17.6 µM (inactive) | 4.13 µM (inactive) | 9.42 µM (inactive) | 8.93 µM (inactive) | 10.4 µM (inactive) | 5.02 µM (inactive) | 3.9 µM (inactive) | 13.5 µM (inactive) | 4.81 µM (inactive) | 14.2 µM (inactive) | 6.25 µM (inactive)
O=C(O)CCNc1ccccc1C(=O)O | > 100 µM (inactive) | > 100 µM (inactive) | 99.1 µM (inactive) | > 100 µM (inactive) | > 100 µM (inactive) | > 100 µM (inactive) | > 100 µM (inactive) | > 100 µM (inactive) | > 100 µM (inactive) | > 100 µM (inactive) | > 100 µM (inactive) | > 100 µM (inactive) | > 100 µM (inactive) | > 100 µM (inactive) | > 100 µM (inactive) | > 100 µM (inactive) | > 100 µM (inactive) | > 100 µM (inactive) | > 100 µM (inactive) | > 100 µM (inactive)
Cc1c(/N=N/c2ccc([N+](=O)[O-])cc2)nc2scc(-c3ccccc3)n12 | > 100 µM (inactive) | > 78.7 µM (inactive) | > 100 µM (inactive) | 53.5 µM (inactive) | > 100 µM (inactive) | 49.4 µM (inactive) | > 100 µM (inactive) | > 100 µM (inactive) | > 100 µM (inactive) | 90.8 µM (inactive) | 73.1 µM (inactive) | > 100 µM (inactive) | 68.5 µM (inactive) | 67.1 µM (inactive) | 99.5 µM (inactive) | 52.7 µM (inactive) | 82.6 µM (inactive) | > 100 µM (inactive) | > 100 µM (inactive) | 58.7 µM (inactive)
